According to PubChem BioAssay AID2060899 (Molecular Pharmacology Branch, DTP, NCI, 2025):
Each block holds one compound with its values, some of them ahead of it.

System: 565726-208-R1-J5-PDC complex spheroids, growth inhibition
Test: Anticancer human tumor 565726-208-R1-J5-PDC patient-derived pancreatic adenocarcinoma cell line growth inhibition [RAS]
Settings: for IC50: curve of first compound; for viability, T/C: stronger effect = lower value
Method in brief: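 Tumour cells grown as complex spheroids with HUVEC endothelial cells and mesenchymal stem cells, treated with RAS pathway inhibitor combinations. Each agent spans half-log steps from near clinical Cmax, or 10 microM where Cmax is unknown.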

[1] = second compound 0.000949 µM, first compound 0.0316 µM
[2] = second compound 0.000949 µM, first compound 0.1 µM
[3] = second compound 0.000949 µM, first compound 0.316 µM
[4] = second compound 0.000949 µM, first compound 1 µM
[5] = second compound 0.003 µM, first compound 0.0316 µM
[6] = second compound 0.003 µM, first compound 0.1 µM
[7] = second compound 0.003 µM, first compound 0.316 µM
[8] = second compound 0.003 µM, first compound 1 µM
[9] = second compound 0.00949 µM, first compound 0.0316 µM
[10] = second compound 0.00949 µM, first compound 0.1 µM
[11] = second compound 0.00949 µM, first compound 0.316 µM
[12] = second compound 0.00949 µM, first compound 1 µM
[13] = second compound 0.03 µM, first compound 0.0316 µM
[14] = second compound 0.03 µM, first compound 0.1 µM
[15] = second compound 0.03 µM, first compound 0.316 µM
[16] = second compound 0.03 µM, first compound 1 µM
[17] = second compound 0.0949 µM, first compound 0.0316 µM
[18] = second compound 0.0949 µM, first compound 0.1 µM
[19] = second compound 0.0949 µM, first compound 0.316 µM
[20] = second compound 0.0949 µM, first compound 1 µM
[21] = second compound 0.3 µM, first compound 0.0316 µM
[22] = second compound 0.3 µM, first compound 0.1 µM
[23] = second compound 0.3 µM, first compound 0.316 µM
[24] = second compound 0.3 µM, first compound 1 µM
[25] = second compound 0.000949 µM, first compound 3.16 µM
[26] = second compound 0.000949 µM, first compound 10 µM
[27] = second compound 0.003 µM, first compound 3.16 µM
[28] = second compound 0.003 µM, first compound 10 µM
[29] = second compound 0.00949 µM, first compound 3.16 µM
[30] = second compound 0.00949 µM, first compound 10 µM
[31] = second compound 0.03 µM, first compound 3.16 µM
[32] = second compound 0.03 µM, first compound 10 µM
[33] = second compound 0.0949 µM, first compound 3.16 µM
[34] = second compound 0.0949 µM, first compound 10 µM
[35] = second compound 0.3 µM, first compound 3.16 µM
[36] = second compound 0.3 µM, first compound 10 µM
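Further: spheroids exposed to compounds for seven days before readout.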
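Wherever viability, T/C is given: 100% = DMSO vehicle control viability.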

IC50 (second compound 0.000949 µM): > 1 µM
IC50 (second compound 0.003 µM): > 1 µM
IC50 (second compound 0.00949 µM): > 1 µM
IC50 (second compound 0.03 µM): > 1 µM
IC50 (second compound 0.0949 µM): > 1 µM
IC50 (second compound 0.3 µM): > 1 µM
SMILES: CCN1CCN(Cc2ccc(Nc3ncc(F)c(-c4cc(F)c5nc(C)n(C(C)C)c5c4)n3)nc2)CC1 + CCn1c(-c2cccnc2C(C)OC)c2c3cc(ccc31)N1CCOC(CC(NC(=O)C(C(C)C)N(C)C(=O)C3(F)CCN(C(=O)C#CC(C)(C)N(C)C)CC3)C(=O)N3CCCC(N3)C(=O)OCC(C)(C)C2)C1
viability, T/C (second compound 0.000949 µM, first compound 0.00316 µM): 93.5%
viability, T/C (second compound 0.000949 µM, first compound 0.01 µM): 91.2%
viability, T/C [1]: 80.6%
viability, T/C [2]: 74%
viability, T/C [3]: 59.3%
viability, T/C [4]: 56.2%
viability, T/C (second compound 0.003 µM, first compound 0.00316 µM): 105%
viability, T/C (second compound 0.003 µM, first compound 0.01 µM): 96%
viability, T/C [5]: 84.3%
viability, T/C [6]: 74.7%
viability, T/C [7]: 60.4%
viability, T/C [8]: 61%
viability, T/C (second compound 0.00949 µM, first compound 0.00316 µM): 97.7%
viability, T/C (second compound 0.00949 µM, first compound 0.01 µM): 89.8%
viability, T/C [9]: 84.4%
viability, T/C [10]: 69.4%
viability, T/C [11]: 64.3%
viability, T/C [12]: 56%
viability, T/C (second compound 0.03 µM, first compound 0.00316 µM): 91.5%
viability, T/C (second compound 0.03 µM, first compound 0.01 µM): 94.3%
viability, T/C [13]: 85.1%
viability, T/C [14]: 72.7%
viability, T/C [15]: 62%
viability, T/C [16]: 57.4%
viability, T/C (second compound 0.0949 µM, first compound 0.00316 µM): 95%
viability, T/C (second compound 0.0949 µM, first compound 0.01 µM): 94.7%
viability, T/C [17]: 85.7%
viability, T/C [18]: 67.9%
viability, T/C [19]: 54.1%
viability, T/C [20]: 59.5%
viability, T/C (second compound 0.3 µM, first compound 0.00316 µM): 85%
viability, T/C (second compound 0.3 µM, first compound 0.01 µM): 82.1%
viability, T/C [21]: 76.5%
viability, T/C [22]: 64.1%
viability, T/C [23]: 56.2%
viability, T/C [24]: 55.3%

IC50 (second compound 0.000949 µM): > 10 µM
IC50 (second compound 0.003 µM): > 10 µM
IC50 (second compound 0.00949 µM): > 10 µM
IC50 (second compound 0.03 µM): > 10 µM
IC50 (second compound 0.0949 µM): > 10 µM
IC50 (second compound 0.3 µM): > 10 µM
SMILES: Cc1nc(N2CCC3(CC2)COC(C)C3N)c(CO)nc1Sc1ccnc(N)c1Cl (stereo unspecified) + CCn1c(-c2cccnc2C(C)OC)c2c3cc(ccc31)N1CCOC(CC(NC(=O)C(C(C)C)N(C)C(=O)C3(F)CCN(C(=O)C#CC(C)(C)N(C)C)CC3)C(=O)N3CCCC(N3)C(=O)OCC(C)(C)C2)C1
viability, T/C [1]: 95.1%
viability, T/C [2]: 92.8%
viability, T/C [3]: 84.9%
viability, T/C [4]: 73.7%
viability, T/C [25]: 80%
viability, T/C [26]: 66.5%
viability, T/C [5]: 104%
viability, T/C [6]: 97%
viability, T/C [7]: 86.6%
viability, T/C [8]: 77%
viability, T/C [27]: 71%
viability, T/C [28]: 70.6%
viability, T/C [9]: 83.4%
viability, T/C [10]: 97.3%
viability, T/C [11]: 86.3%
viability, T/C [12]: 76.5%
viability, T/C [29]: 79.7%
viability, T/C [30]: 71.6%
viability, T/C [13]: 95.5%
viability, T/C [14]: 87.3%
viability, T/C [15]: 92.8%
viability, T/C [16]: 89.3%
viability, T/C [31]: 81.5%
viability, T/C [32]: 69.6%
viability, T/C [17]: 81%
viability, T/C [18]: 98.2%
viability, T/C [19]: 85.1%
viability, T/C [20]: 69.8%
viability, T/C [33]: 77.4%
viability, T/C [34]: 78.8%
viability, T/C [21]: 91.2%
viability, T/C [22]: 79.8%
viability, T/C [23]: 79.4%
viability, T/C [24]: 69.8%
viability, T/C [35]: 70.2%
viability, T/C [36]: 59.2%

IC50 (second compound 0.000949 µM): > 10 µM
IC50 (second compound 0.003 µM): > 10 µM
IC50 (second compound 0.00949 µM): > 10 µM
IC50 (second compound 0.03 µM): > 10 µM
IC50 (second compound 0.0949 µM): > 10 µM
IC50 (second compound 0.3 µM): 8.09 µM
SMILES: NC1c2ccccc2OC12CCN(c1cnc3c(N4CCCc5ncccc54)n[nH]c3n1)CC2 (stereo unspecified) + CCn1c(-c2cccnc2C(C)OC)c2c3cc(ccc31)N1CCOC(CC(NC(=O)C(C(C)C)N(C)C(=O)C3(F)CCN(C(=O)C#CC(C)(C)N(C)C)CC3)C(=O)N3CCCC(N3)C(=O)OCC(C)(C)C2)C1
viability, T/C [1]: 82.5%
viability, T/C [2]: 77.5%
viability, T/C [3]: 72.6%
viability, T/C [4]: 60.9%
viability, T/C [25]: 65.7%
viability, T/C [26]: 56.9%
viability, T/C [5]: 82.6%
viability, T/C [6]: 76.8%
viability, T/C [7]: 70%
viability, T/C [8]: 65%
viability, T/C [27]: 62.9%
viability, T/C [28]: 60.5%
viability, T/C [9]: 76.3%
viability, T/C [10]: 85.5%
viability, T/C [11]: 70%
viability, T/C [12]: 65%
viability, T/C [29]: 64.8%
viability, T/C [30]: 55.5%
viability, T/C [13]: 85.4%
viability, T/C [14]: 76.3%
viability, T/C [15]: 73.4%
viability, T/C [16]: 62.7%
viability, T/C [31]: 58.8%
viability, T/C [32]: 58.5%
viability, T/C [17]: 78.8%
viability, T/C [18]: 75.6%
viability, T/C [19]: 71.5%
viability, T/C [20]: 65%
viability, T/C [33]: 58.5%
viability, T/C [34]: 57%
viability, T/C [21]: 72.8%
viability, T/C [22]: 68.2%
viability, T/C [23]: 68.8%
viability, T/C [24]: 59.5%
viability, T/C [35]: 54.2%
viability, T/C [36]: 49.5%
